Source: patent US9657062B2, “Ghrelin analogues” (Zealand Pharma A/S, priority 2012, dated 2017)
*1 amine or outer side, *2 acyl side, *3 side chain or, on linkers, in order; H or OH if unused. Where a SMILES comes first, the peptide text is derived from it. [ ]: non-standard residue; d: D form. The star is where a group is joined. Cmp = 4-carboxymethyl-piperidine, O=C(CC1CCN([*:1])CC1)[*:2]; Octanoyl = CCCCCCCC(=O)*; Dap = NC[C@H](N)C(=O)O; Octyl = CCCCCCCC*

B1: H-Cmp-S(O-octanoyl)-FLSPEHQRVQQRKESKKPPAKLQPR-OH (peptide)
peptide: H-[Cmp]S(Octanoyl)FLSPEHQRVQQRKESKKPPAKLQPR-OH
SMILES: CCCCCCCC(=O)OC[C@H](NC(=O)CC1CCNCC1)C(=O)N[C@@H](Cc1ccccc1)C(=O)N[C@@H](CC(C)C)C(=O)N[C@@H](CO)C(=O)N1CCC[C@H]1C(=O)N[C@@H](CCC(=O)O)C(=O)N[C@@H](Cc1c[nH]cn1)C(=O)N[C@@H](CCC(N)=O)C(=O)N[C@@H](CCCNC(=N)N)C(=O)N[C@H](C(=O)N[C@@H](CCC(N)=O)C(=O)N[C@@H](CCC(N)=O)C(=O)N[C@@H](CCCNC(=N)N)C(=O)N[C@@H](CCCCN)C(=O)N[C@@H](CCC(=O)O)C(=O)N[C@@H](CO)C(=O)N[C@@H](CCCCN)C(=O)N[C@@H](CCCCN)C(=O)N1CCC[C@H]1C(=O)N1CCC[C@H]1C(=O)N[C@@H](C)C(=O)N[C@@H](CCCCN)C(=O)N[C@@H](CC(C)C)C(=O)N[C@@H](CCC(N)=O)C(=O)N1CCC[C@H]1C(=O)N[C@@H](CCCNC(=N)N)C(=O)O)C(C)C
B2: H-SS-S(O-octanoyl)-FLSPEHQRVQQRKESKKPPAKLQPR-OH (peptide)
peptide: H-SSS(Octanoyl)FLSPEHQRVQQRKESKKPPAKLQPR-OH
SMILES: CCCCCCCC(=O)OC[C@H](NC(=O)[C@H](CO)NC(=O)[C@@H](N)CO)C(=O)N[C@@H](Cc1ccccc1)C(=O)N[C@@H](CC(C)C)C(=O)N[C@@H](CO)C(=O)N1CCC[C@H]1C(=O)N[C@@H](CCC(=O)O)C(=O)N[C@@H](Cc1c[nH]cn1)C(=O)N[C@@H](CCC(N)=O)C(=O)N[C@@H](CCCNC(=N)N)C(=O)N[C@H](C(=O)N[C@@H](CCC(N)=O)C(=O)N[C@@H](CCC(N)=O)C(=O)N[C@@H](CCCNC(=N)N)C(=O)N[C@@H](CCCCN)C(=O)N[C@@H](CCC(=O)O)C(=O)N[C@@H](CO)C(=O)N[C@@H](CCCCN)C(=O)N[C@@H](CCCCN)C(=O)N1CCC[C@H]1C(=O)N1CCC[C@H]1C(=O)N[C@@H](C)C(=O)N[C@@H](CCCCN)C(=O)N[C@@H](CC(C)C)C(=O)N[C@@H](CCC(N)=O)C(=O)N1CCC[C@H]1C(=O)N[C@@H](CCCNC(=N)N)C(=O)O)C(C)C
B3: H-PS-S(O-octyl)-FLSPEHSRVSSRKESKKPPAKLSPR-NH2 (peptide)
peptide: H-PSS(Octyl)FLSPEHSRVSSRKESKKPPAKLSPR-NH2
SMILES: CCCCCCCCOC[C@H](NC(=O)[C@H](CO)NC(=O)[C@@H]1CCCN1)C(=O)N[C@@H](Cc1ccccc1)C(=O)N[C@@H](CC(C)C)C(=O)N[C@@H](CO)C(=O)N1CCC[C@H]1C(=O)N[C@@H](CCC(=O)O)C(=O)N[C@@H](Cc1c[nH]cn1)C(=O)N[C@@H](CO)C(=O)N[C@@H](CCCNC(=N)N)C(=O)N[C@H](C(=O)N[C@@H](CO)C(=O)N[C@@H](CO)C(=O)N[C@@H](CCCNC(=N)N)C(=O)N[C@@H](CCCCN)C(=O)N[C@@H](CCC(=O)O)C(=O)N[C@@H](CO)C(=O)N[C@@H](CCCCN)C(=O)N[C@@H](CCCCN)C(=O)N1CCC[C@H]1C(=O)N1CCC[C@H]1C(=O)N[C@@H](C)C(=O)N[C@@H](CCCCN)C(=O)N[C@@H](CC(C)C)C(=O)N[C@@H](CO)C(=O)N1CCC[C@H]1C(=O)N[C@@H](CCCNC(=N)N)C(N)=O)C(C)C

test system: normal chow-fed C57BL/6J male mice; assay: Effect on food intake in normal mice (HM-2 automated monitoring); assay type: in vivo, mouse; settings: 300 nmol/kg s.c. once, light phase 0-6 h, modified protocol (food access re-opened 2 h after dosing)
Experimental: Normal chow-fed C57BL/6J male mice were used. The mice were kept in an automated food- and water-intake monitoring system (HM-2) which allows automated on-line measurements of accumulated food intake (FI) and other parameters. Food intake was monitored by the HM-2 system up to 24 h after dosing. The mice were kept 6 per cage, and each dosing group consisted of 6 animals.
In the initial experimental set-up with ghrelin as test compound, animals were allowed free access to food directly after treatment, and the resulting data for food intake are shown in FIG. 1A herein (vide infra).
In order to further investigate the “duration of action” of ghrelin and the other test compounds a new protocol was defined. In the modified protocol the gate to the food chambers was closed prior to dosing with vehicle or test compound and was re-opened 2 hours thereafter. The resulting data for food intake following dosing with ghrelin or vehicle are summarized in FIG. 1B (vide infra), while the corresponding data for food intake following dosing with each of the of the other four test compounds. (Compound 16, 22, 23 or 43 of the invention) or with vehicle are summarized in FIG. 2A (data for monitoring up to 6 hours after dosing) and FIG. 2B (data for monitoring up to 24 hours after dosing).

Molecule | Accumulated FI at 6h
CCCCCCCCOC[C@H](NC(=O)[C@H](CO)NC(=O)[C@@H]1CCCN1)C(=O)N[C@@H](Cc1ccccc1)C(=O)N[C@@H](CC(C)C)C(=O)N[C@@H](CO)C(=O)N1CCC[C@H]1C(=O)N[C@@H](CCC(=O)O)C(=O)N[C@@H](Cc1c[nH]cn1)C(=O)N[C@@H](CO)C(=O)N[C@@H](CCCNC(=N)N)C(=O)N[C@H](C(=O)N[C@@H](CO)C(=O)N[C@@H](CO)C(=O)N[C@@H](CCCNC(=N)N)C(=O)N[C@@H](CCCCN)C(=O)N[C@@H](CCC(=O)O)C(=O)N[C@@H](CO)C(=O)N[C@@H](CO)C(=O)N[C@@H](CO)C(=O)N1CCC[C@H]1C(=O)N1CCC[C@H]1C(=O)N[C@@H](C)C(=O)N[C@@H](CCCCN)C(=O)N[C@@H](CC(C)C)C(=O)N[C@@H](CO)C(=O)N1CCC[C@H]1C(=O)N[C@@H](CCCNC(=N)N)C(N)=O)C(C)C [Compound 47] (H-PSS(Octyl)FLSPEHSRVSSRKESSSPPAKLSPR-NH2) | 1.55 ± 0.16 g

same assay, conditions: 300 nmol/kg s.c., modified protocol (FIG. 2A)

Molecule | Effects on FI in the 0-6 h light period
CCCCCCCC(=O)NC[C@H](NC(=O)[C@H](CO)NC(=O)[C@@H]1CCCN1)C(=O)N[C@@H](Cc1ccccc1)C(=O)N[C@@H](CC(C)C)C(=O)N[C@@H](CO)C(=O)N1CCC[C@H]1C(=O)N[C@@H](CCC(=O)O)C(=O)N[C@@H](Cc1c[nH]cn1)C(=O)N[C@@H](CO)C(=O)N[C@@H](CCCNC(=N)N)C(=O)N[C@H](C(=O)N[C@@H](CO)C(=O)N[C@@H](CO)C(=O)N[C@@H](CCCNC(=N)N)C(=O)N[C@@H](CCCCN)C(=O)N[C@@H](CCC(=O)O)C(=O)N[C@@H](CO)C(=O)N[C@@H](CCCCN)C(=O)N[C@@H](CCCCN)C(=O)N1CCC[C@H]1C(=O)N1CCC[C@H]1C(=O)N[C@@H](C)C(=O)N[C@@H](CCCCN)C(=O)N[C@@H](CC(C)C)C(=O)N[C@@H](CO)C(=O)N1CCC[C@H]1C(=O)N[C@@H](CCCNC(=N)N)C(N)=O)C(C)C [Compound 23] (H-PS[Dap](Octanoyl)FLSPEHSRVSSRKESKKPPAKLSPR-NH2) | moderate effects

same assay, conditions: 300 nmol/kg s.c., modified protocol, 0-24 h monitoring (FIG. 2B)

Molecule | Effects on FI during the dark period
CCCCCCCC(=O)NC[C@H](NC(=O)[C@H](CO)NC(=O)[C@@H]1CCCN1)C(=O)N[C@@H](Cc1ccccc1)C(=O)N[C@@H](CC(C)C)C(=O)N[C@@H](CO)C(=O)N1CCC[C@H]1C(=O)N[C@@H](CCC(=O)O)C(=O)N[C@@H](Cc1c[nH]cn1)C(=O)N[C@@H](CO)C(=O)N[C@@H](CCCNC(=N)N)C(=O)N[C@H](C(=O)N[C@@H](CO)C(=O)N[C@@H](CO)C(=O)N[C@@H](CCCNC(=N)N)C(=O)N[C@@H](CCCCN)C(=O)N[C@@H](CCC(=O)O)C(=O)N[C@@H](CO)C(=O)N[C@@H](CCCCN)C(=O)N[C@@H](CCCCN)C(=O)N1CCC[C@H]1C(=O)N1CCC[C@H]1C(=O)N[C@@H](C)C(=O)N[C@@H](CCCCN)C(=O)N[C@@H](CC(C)C)C(=O)N[C@@H](CO)C(=O)N1CCC[C@H]1C(=O)N[C@@H](CCCNC(=N)N)C(N)=O)C(C)C [Compound 23] (H-PS[Dap](Octanoyl)FLSPEHSRVSSRKESKKPPAKLSPR-NH2) | significant effects

target: human growth hormone secretagogue receptor type 1a (human, UniProt Q92847 1-366); assay: cell-based or functional assay; settings: not given
Sequence (Q92847 whole entry): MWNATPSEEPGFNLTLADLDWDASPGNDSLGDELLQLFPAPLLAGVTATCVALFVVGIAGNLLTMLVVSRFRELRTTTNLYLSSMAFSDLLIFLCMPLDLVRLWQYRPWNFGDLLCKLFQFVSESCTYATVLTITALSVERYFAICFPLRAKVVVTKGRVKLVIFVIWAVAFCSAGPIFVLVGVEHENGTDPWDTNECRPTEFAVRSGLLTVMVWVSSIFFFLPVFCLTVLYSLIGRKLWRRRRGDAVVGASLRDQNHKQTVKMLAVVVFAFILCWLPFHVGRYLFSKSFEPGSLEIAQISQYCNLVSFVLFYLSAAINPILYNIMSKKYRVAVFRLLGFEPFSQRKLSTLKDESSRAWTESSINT

Molecule | EC50 (nM); Ca2+ induction in HEK293 cells stably expressing the human ghrelin receptor
B1 | 0.558 nM
B2 | 0.385 nM
B3 | 0.48 nM
